Results taken from patent publication US9988600B2, “Cell culture media” (MERCK PATENT GMBH, priority 2013, dated 2018).
Counter-ions that a name gives are not always drawn.

Experiment: Effect of polymer embedding on components of DMEM F12 medium (embedded vs non-embedded form);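 further: qualitative label per medium component: Hygros denotes lower hygroscopicity of the embedded form versus the free form, NA denotes not applicable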
Type: physicochemical
Settings: component of DMEM F12 medium embedded in polymer, compared to the non-embedded form
Description: For all components the effect of polymer embedding is shown.
In Table 1, “Hygros” means that if the component is embedded according to the present invention and used in the media composition in its embedded form, the ability of said substance to attract and hold water molecules from the surrounding environment is reduced compared to the non-embedded form.

For `Cl.Cl.N[C@@H](CSSC[C@H](N)C(=O)O)C(=O)O` [L-Cystine 2HCl (mikronisiert), L-Cystine 2HCl (mikronisiert) aus 200635], the embedding effect was “Solu”.
In the case of `O.O.O.O.O.O.O.O=S(=O)([O-])[O-].[Zn+2]` [Zinc sulafte 7H2O], the embedding effect is reported as “Solu”.
In the case of `Cl.Cl.NCCCCN` [Putrescine 2HCl], the embedding effect is reported as “Stab”.
With `Nc1nc2ncc(CNc3ccc(C(=O)N[C@@H](CCC(=O)O)C(=O)O)cc3)nc2c(=O)[nH]1` [Folic acid] the embedding effect was “Stab”.
For `Cl.N[C@@H](CS)C(=O)O.O` [L-Cysteine hydrochloride H2O], the embedding effect was “Solu”.
With `CC(C)C[C@H](N)C(=O)O` [L-Leucine] the embedding effect was “Solu”.
In the case of `O=C(O)CCCC[C@@H]1SC[C@@H]2NC(=O)N[C@@H]21` [Biotin], the embedding effect is reported as “Stab”.
With `Cl.N[C@@H](Cc1cnc[nH]1)C(=O)O.O` [L-Histidine HCl H2O] the embedding effect was “Solu”.
For `NC(=O)C[C@H](N)C(=O)O.O` [L-Asparagine H2O], the embedding effect was “Solu”.
With `CC[C@H](C)[C@H](N)C(=O)O` [L-Isoleucine] the embedding effect was “Solu”.
For `Cc1cc2nc3c(=O)[nH]c(=O)nc-3n(C[C@H](O)[C@H](O)[C@H](O)CO)c2cc1C` [Riboflavin], the embedding effect was “Stab”.
For `N[C@@H](Cc1ccc([O-])cc1)C(=O)[O-].O.O.[Na+].[Na+]` [L-Tyrosine 2Na], the embedding effect was “Solu”.
With `N[C@@H](Cc1c[nH]c2ccccc12)C(=O)O` [L-Thryptophan] the embedding effect was “Solu”.
With Vitamin B12 the embedding effect was “Solu”.
In the case of `N[C@@H](Cc1ccccc1)C(=O)O` [L-Phenylalanine], the embedding effect is reported as “Solu”.
For `Cl.NCCCC[C@H](N)C(=O)O` [L-Lysine hydrochloride], the embedding effect was “Solu”.
For `NC(=O)c1cccnc1` [Niacinamide], the embedding effect was “Stab”.
With `O.O.O.O.O.O=S(=O)([O-])[O-].[Cu+2]` [Copper sulfate 5H2O] the embedding effect was “Solu”.
In the case of `CC(=O)C(=O)[O-].[Na+]` [Sodium pyruvate], the embedding effect is reported as “Stab”.
For `CCCCC/C=C\C/C=C\CCCCCCCC(=O)O` [Linoleic acid], the embedding effect was “Oxid”.
In the case of `Cc1ncc(CO)c(CO)c1O.Cl` [Pyridoxine HCl], the embedding effect is reported as “Stab”.
For `N[C@@H](CO)C(=O)O` [L-Serine], the embedding effect was “Solu”.
With `O=C(O)CCCCC1CCSS1` (racemic) [DL-alpha-lipoic acid] the embedding effect was “Oxid”.
For `C[C@@H](O)[C@H](N)C(=O)O` [L-Threonine], the embedding effect was “Solu”.
For `O.O.O.O.O.O.O.O=S(=O)([O-])[O-].[Fe+2]` [Ferrous sulfate 7H2O], the embedding effect was “Solu”.
In the case of `CSCC[C@H](N)C(=O)O` [L-Methionine], the embedding effect is reported as “Solu”.
With `NC(=O)CC[C@H](N)C(=O)O` [L-Glutamine] the embedding effect was “Stab”.
With `O.O.O.O.O.O.O.O.O.O=[N+]([O-])[O-].O=[N+]([O-])[O-].O=[N+]([O-])[O-].[Fe+3]` [Ferric nitrate 9H2O] the embedding effect was “Solu”.
In the case of `C[N+](C)(C)CCO.[Cl-]` [Choline chloride], the embedding effect is reported as “Hygros”.
With `C[C@H](N)C(=O)O` [L-Alanine] the embedding effect was “Solu”.
For `Cc1ncc(C[n+]2csc(CCO)c2C)c(N)n1` [Thiamine HCl], the embedding effect was “Stab”.
With `CC(C)[C@H](N)C(=O)O` [L-Valine] the embedding effect was “Solu”.
